US10532036B2, “Combination composition” (AFT Pharmaceuticals Ltd, priority 2004, dated 2020)
Where two headings read alike, the source gives them in different places.

Legend:
[1] = system: pain following wisdom tooth extraction under local anaesthesia; test: pilot study using a dental pain model, visual analogue scale pain scores; assay type: in vivo, patients; details: VAS score, calculated from the trial of Example 5, lower = less pain
Description: Pain scores at rest and on activity were measured by visual analogue scales which were used to derive an area-under-the curve (AUC) pain score. A lower AUC represents better pain relief.
A lower VAS score is consistent with less pain due to better pain relief. […] Pain scores were calculated as means over the first dose interval rather than AUC values to allow comparison with literature values for paracetamol in the dental pain model.

[2] = system: postoperative pain after third molar surgery; details: VAS, paracetamol 1000 mg, RA Seymour et al 2003, cited from earlier work

Row | SMILES | Mean Pain Score at Rest (over first dose interval) [1] [mm] | Mean Pain Score at Rest ([2]; 0-30 minutes) | Mean Pain Score at Rest ([2]; over 4 hours) [mm]
1 | CC(C)Cc1ccc(C(C)C(=O)O)cc1 (stereo not drawn) [Ibuprofen] | 28 |  | 
2 | CC(=O)Nc1ccc(O)cc1 [Paracetamol] |  | 46-48 mm | 42
